This is an account of results in patent publication US20240294550A1, “8-OXA-3-AZABICYCLO[3.2.1]OCTANE COMPOUNDS OR SALT THEREOF, AND PREPARATION METHOD AND USE THEREOF” (LITTDD MEDICINES LTD, priority 2021, published 2024).

Where a name gives a salt, the structure may show the parent alone.

The test system of one test is LOVO cells. Nature of the test: Cell proliferation assay (CellTiter-Glo). Conditions: Homo sapiens, 96 hours. The class given is cell-based. The protocol:
The cell proliferation inhibition effect of the compound of the invention was tested using CellTiter-Glo™ cell viability assay kit. This kit uses luciferase as the detector. During the luminescence process, the luciferase requires the participation of ATP. CellTiter-Glo™ reagent was added to the cell culture medium, and the luminescence value was measured. The light signal is proportional to the amount of ATP present in the system, and ATP positively correlates with the number of viable cells present, thus the cell proliferation activity is measured.
Cell culture and seeding: LOVO cells in logarithmic growth phase (human colon carcinoma cells) (ATCC CCL-229) were harvested and counted using a platelet counter. Trypan blue exclusion method was used to detect the cell viability to ensure that the cell viability was above 90%. 90 μL of cell suspension (RPMI1640+10% fetal bovine serum) was added to a 96-well transparent flat-bottom black-wall plate (Thermo, 165305) respectively, and the cell concentration was adjusted to 3000/well/90 μl. Cells in the 96-well plate were incubated overnight at 37° C., 5% CO2 with 95% humidity (Thermo, Model 3100 Series).
Firstly, DMSO was used as the solvent to prepare 10 mM mother solution of the test compounds, and then PBS was used to dilute 100 times to prepare a solution of 10 times of final concentration, the highest concentration was 100 μM. 10 μL solution of the test compounds was added to each well of the 96 well plate inoculated with cells, namely the solution was further diluted 10 times to reach the final concentration of 10 μM. Starting from 10 μM, the final concentration of the test compound was 3-fold serially diluted, with 9 concentrations in total with 3 triplicates for each concentration. The 96 well plates with the test compounds and cells were incubated at 37° C., 5% CO2 and 95% humidity for 96 hours, and then CellTiter Glo analysis was performed.
CellTiter-Glo Reagents (CellTiter Glo R Luminescent Cell Viability Assay, Promega, G7572) were melted and the 96-well plates were equilibrated to room temperature for 30 minutes. An equal volume of CellTiter-Glo solution was added to each well, and the cells were lysed by shaking on the fixed orbit shaker for 5 minutes. The assay plates were left at room temperature for 20 minutes to stabilize the luminescence signal, and the luminescence signals were read using the SpectraMax multi-labeled microplate detector (MD, M3).
Data were analyzed using GraphPad Prism 7.0 software, fitted with non-linear S-curve regression to derive the dose-response curves, and IC50 values were calculated therefrom.
Cell survival rate (%)=(LumDrug to be tested−LumCulture medium control)/(LumCell control−LumCulture medium control)×100%

For the next test, the target named is ATR (Homo sapiens (Human), UniProt Q13535). In words: ATR kinase inhibition assay (HTRF). The class given is biochemical. The settings on record: p53 substrate, ATP 150 nM. The protocol:
This experiment adopted Homogeneous time-resolved fluorescence technology (HTRF®) of Cisbio Company for assay.
Experiment method: buffers were prepared as follows:
Preparation of solutions of the test compounds: The example compounds shown in the table below were prepared into solutions using DMSO as solvent, the stock solution typically being 10 mM. The maximum starting concentration in this experiment was 3 μM, DMSO 3-fold serial dilutions for concentrations, the serially diluted solution was added to each well of the corresponding 384-well plate (geriner bio-one, Cat #784075) to give final concentrations of 3000, 1000, 333, 111, 37, 12.3, 4.12, 1.37, 0.457, 0.152 nM, respectively, and the corresponding amount of DMSO was added to the additional wells to be used as negative or positive control wells, respectively.
The enzyme and substrate were separately dissolved and diluted in two tubes with the buffer prepared above at the following concentrations:
5 μL of the ATR protein solution from tube A was added to the compound-containing wells and the negative control wells in the assay plates using an electric multichannel pipettor, and the same volume of the prepared buffer (medium only, no enzyme) was added to the positive control wells. The plates were centrifuged for one minute at 1000 rpm, and then placed in an incubator at 25° C. for 15 minutes. 5 μL of the substrate mix solution from tube B was added to the positive control well, negative control well and the compound-containing well of the assay plates in the same manner, centrifuged and incubated at 25° C. for 90 minutes.
During the reaction, after ATR phosphorylated the substrate p53, two antibodies were added. Among them, anti-phospho-p53-Eu, as an energy donor, can specifically bind to the phosphorylation site of p53, while anti-GST-d2, as an energy receptor, can specifically bind to the GST-tagged p53. Upon excitation by a laser with certain wavelength (the excitation wavelength in this experiment is 340 nm), the energy donor can emit emission light of 615 nm, and when the energy donor and the energy receptor are close enough in space (that is, two antibodies are connected to p53 at the same time), energy transfer can occur between the energy donor and the energy receptor, so that the energy receptor can emit emission light of 665 nm. The two emission lights were detected by a plate reader, and the ratio of the signals at 665 nm and 615 nm was calculated. The IC50 of the samples tested can be obtained by plotting and calculation.
10 μL per well of the detection solution was added to the positive control, negative control and compound wells of the assay plate using an electric multichannel pipette, centrifuged and incubated overnight at 4° C., and read with the plate reader Envision 2104.
Compound inhibition rate was calculated using interpolation. The mean values of the positive and negative controls were calculated respectively, and the following formula was used to calculate the inhibition rates of the compounds:
Inhibition rate Minimum response+(Compound concentration ^Curve slope)*(Maximum response−Minimum response)/(Compound concentration^Curve slope+Half inhibition concentration ^Curve slope)
The IC50 value of each compound to enzyme activity was obtained.

ATR, sequence (Q13535 whole entry): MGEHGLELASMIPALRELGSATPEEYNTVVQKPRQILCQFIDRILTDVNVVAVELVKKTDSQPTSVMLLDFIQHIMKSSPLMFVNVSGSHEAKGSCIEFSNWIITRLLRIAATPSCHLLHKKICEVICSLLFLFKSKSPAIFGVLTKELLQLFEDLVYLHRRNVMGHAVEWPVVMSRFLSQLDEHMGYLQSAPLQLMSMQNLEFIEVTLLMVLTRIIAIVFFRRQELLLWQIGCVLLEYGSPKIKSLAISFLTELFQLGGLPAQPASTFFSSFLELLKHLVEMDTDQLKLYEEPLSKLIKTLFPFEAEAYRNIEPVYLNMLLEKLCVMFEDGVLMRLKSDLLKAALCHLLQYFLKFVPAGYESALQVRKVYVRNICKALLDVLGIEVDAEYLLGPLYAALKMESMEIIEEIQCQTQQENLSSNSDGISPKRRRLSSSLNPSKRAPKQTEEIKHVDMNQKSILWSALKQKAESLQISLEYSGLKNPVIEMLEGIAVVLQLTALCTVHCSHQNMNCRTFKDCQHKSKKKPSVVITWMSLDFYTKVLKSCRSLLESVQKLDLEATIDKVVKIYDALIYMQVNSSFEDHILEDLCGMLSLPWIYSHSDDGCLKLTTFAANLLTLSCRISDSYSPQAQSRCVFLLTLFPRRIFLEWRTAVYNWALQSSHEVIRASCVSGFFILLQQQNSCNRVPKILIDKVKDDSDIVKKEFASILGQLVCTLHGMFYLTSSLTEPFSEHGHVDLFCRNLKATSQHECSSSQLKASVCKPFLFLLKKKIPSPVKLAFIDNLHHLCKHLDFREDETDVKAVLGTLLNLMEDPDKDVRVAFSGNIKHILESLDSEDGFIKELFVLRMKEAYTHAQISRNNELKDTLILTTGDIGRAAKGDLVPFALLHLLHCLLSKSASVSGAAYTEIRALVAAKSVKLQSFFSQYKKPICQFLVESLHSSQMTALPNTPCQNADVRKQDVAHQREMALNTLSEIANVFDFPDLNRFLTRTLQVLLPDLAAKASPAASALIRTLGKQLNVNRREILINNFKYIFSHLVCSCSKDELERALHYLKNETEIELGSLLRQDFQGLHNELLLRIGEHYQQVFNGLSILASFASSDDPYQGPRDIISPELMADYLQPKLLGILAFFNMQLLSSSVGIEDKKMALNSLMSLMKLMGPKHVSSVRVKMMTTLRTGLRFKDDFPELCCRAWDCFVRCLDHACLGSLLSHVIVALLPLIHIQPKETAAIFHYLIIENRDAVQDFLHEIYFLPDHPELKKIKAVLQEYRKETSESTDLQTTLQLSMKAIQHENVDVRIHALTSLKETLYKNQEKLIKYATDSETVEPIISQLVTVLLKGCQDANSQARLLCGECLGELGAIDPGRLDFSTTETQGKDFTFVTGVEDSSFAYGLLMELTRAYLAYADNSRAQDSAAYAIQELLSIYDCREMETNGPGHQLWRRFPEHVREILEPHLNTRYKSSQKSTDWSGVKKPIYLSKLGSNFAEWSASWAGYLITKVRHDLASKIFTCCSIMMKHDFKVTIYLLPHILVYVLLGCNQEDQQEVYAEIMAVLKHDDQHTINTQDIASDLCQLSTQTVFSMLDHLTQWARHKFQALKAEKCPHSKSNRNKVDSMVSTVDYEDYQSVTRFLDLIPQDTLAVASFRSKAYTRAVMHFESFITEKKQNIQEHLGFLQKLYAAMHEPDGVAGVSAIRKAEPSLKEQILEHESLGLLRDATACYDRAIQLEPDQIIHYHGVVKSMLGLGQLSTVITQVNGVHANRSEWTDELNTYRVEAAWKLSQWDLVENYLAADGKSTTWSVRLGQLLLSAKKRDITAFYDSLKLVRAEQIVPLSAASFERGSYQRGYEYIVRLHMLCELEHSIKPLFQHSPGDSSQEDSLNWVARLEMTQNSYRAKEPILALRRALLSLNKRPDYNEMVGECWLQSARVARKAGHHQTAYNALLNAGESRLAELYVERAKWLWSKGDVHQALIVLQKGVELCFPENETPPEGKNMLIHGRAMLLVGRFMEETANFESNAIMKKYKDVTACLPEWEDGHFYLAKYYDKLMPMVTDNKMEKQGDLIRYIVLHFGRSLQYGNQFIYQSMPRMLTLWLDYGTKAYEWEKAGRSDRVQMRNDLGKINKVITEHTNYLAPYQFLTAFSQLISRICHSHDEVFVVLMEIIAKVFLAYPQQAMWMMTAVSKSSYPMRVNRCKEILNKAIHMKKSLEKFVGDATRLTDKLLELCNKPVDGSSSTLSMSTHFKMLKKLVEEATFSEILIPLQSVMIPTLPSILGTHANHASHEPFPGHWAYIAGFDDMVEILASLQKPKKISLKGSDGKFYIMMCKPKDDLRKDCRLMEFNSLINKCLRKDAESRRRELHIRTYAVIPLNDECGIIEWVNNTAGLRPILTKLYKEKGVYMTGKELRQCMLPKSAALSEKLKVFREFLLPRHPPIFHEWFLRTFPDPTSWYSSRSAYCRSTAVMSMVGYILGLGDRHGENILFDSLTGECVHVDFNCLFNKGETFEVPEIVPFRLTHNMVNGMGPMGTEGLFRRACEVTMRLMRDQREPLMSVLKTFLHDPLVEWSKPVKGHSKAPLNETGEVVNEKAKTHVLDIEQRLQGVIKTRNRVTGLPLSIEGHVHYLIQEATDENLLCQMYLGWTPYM
ATR, sequence (Q8WXE1 whole entry partner): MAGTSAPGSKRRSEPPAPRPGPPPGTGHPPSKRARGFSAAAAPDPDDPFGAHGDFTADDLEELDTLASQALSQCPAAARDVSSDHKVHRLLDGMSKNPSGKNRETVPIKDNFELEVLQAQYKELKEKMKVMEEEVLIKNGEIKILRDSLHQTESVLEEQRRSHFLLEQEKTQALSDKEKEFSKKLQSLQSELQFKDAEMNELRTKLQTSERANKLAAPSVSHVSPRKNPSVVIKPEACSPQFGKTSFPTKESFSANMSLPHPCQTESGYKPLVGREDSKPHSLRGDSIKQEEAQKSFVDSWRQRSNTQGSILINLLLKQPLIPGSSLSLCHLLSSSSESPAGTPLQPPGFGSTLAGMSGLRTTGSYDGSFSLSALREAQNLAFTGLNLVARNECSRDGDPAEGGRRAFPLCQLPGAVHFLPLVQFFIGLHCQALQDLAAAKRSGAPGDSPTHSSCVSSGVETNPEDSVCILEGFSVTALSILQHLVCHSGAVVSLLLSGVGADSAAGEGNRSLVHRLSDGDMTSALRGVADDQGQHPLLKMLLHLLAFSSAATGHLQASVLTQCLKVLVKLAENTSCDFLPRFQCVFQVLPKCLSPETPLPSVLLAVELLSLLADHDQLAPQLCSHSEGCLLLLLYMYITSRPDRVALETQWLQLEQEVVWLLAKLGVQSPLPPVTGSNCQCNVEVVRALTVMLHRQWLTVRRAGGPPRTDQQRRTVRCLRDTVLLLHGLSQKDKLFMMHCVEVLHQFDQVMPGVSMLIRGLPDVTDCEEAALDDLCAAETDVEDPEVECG

Broadly, the IC50 is the concentration that inhibits the measured activity by half. Lower therefore signals greater potency in that assay. For the compound `C[C@@H]1COCCN1c1cc(N2CC3CCC(C2)O3)nn2c(-c3cc[nH]n3)cnc12` [Example 2, 3-(8-((R)-3-methylmorpholino)-3-(1H-pyrazol-3-yl)imidazo[1,2-b]pyridazin-6-yl)-8-oxa-3-azabicyclo[3.2.1]octane], the IC50 in the test on LOVO cells was 0.479 µM; on ATR, 0.0403 µM.

Compound `C[C@@H]1COCCN1c1cc(N2CC3CCC(C2)O3)nc2c(-c3cc[nH]n3)nn(C)c12` [Example 19, 3-(1-methyl-7-((R)-3-methylmorpholino)-3-(1H-pyrazol-3-yl)-1H-pyrazolo[4,3-b]pyridin-5-yl)-8-oxa-3-azabicyclo[3.2.1]octane] came in with an IC50 in the test on LOVO cells of 0.62 µM.

Regarding `C[C@H]1CC(F)(F)CCN1c1cc(N2CC3CCC(C2)O3)nn2c(-c3cc[nH]n3)ncc12` [Example 32, 3-(4-((S)-4,4-difluoro-2-methylpiperidin-1-yl)-7-(1H-pyrazol-3-yl)imidazo[1,5-b]pyridazin-2-yl)-8-oxa-3-azabicyclo[3.2.1]octane], the values for the IC50 in the test with LOVO cells and against ATR were 0.156 µM and 0.0056 µM, respectively.

Take `c1cc(-c2ncc3c(N4C5CCC4COC5)cc(N4CC5CCC(C4)O5)nn23)n[nH]1` [Example 8, 8-(2-(8-oxa-3-azabicyclo[3.2.1]octan-3-yl)-7-(1H-pyrazol-3-yl)imidazo[1,5-b]pyridazin-4-yl)-3-oxa-8-azabicyclo[3.2.1]octane]: the results for the IC50 in the test with LOVO cells and on ATR were 0.243 µM and 0.0184 µM, respectively.

Take `Cn1nccc1-c1cc(N2CC3CCC(C2)O3)nc2c(-c3cc[nH]n3)cnn12` [Example 26, 3-(7-(1-methyl-1H-pyrazol-5-yl)-3-(1H-pyrazol-3-yl)pyrazolo[1,5-a]pyrimidin-5-yl)-8-oxa-3-azabicyclo[3.2.1]octane]: the IC50 in the test with LOVO cells is 1.27 µM; on ATR, 0.0577 µM.

Consider `C[C@@H]1CNCCN1c1cc(N2CC3CCC(C2)O3)nn2c(-c3cc[nH]n3)ncc12` [Example 9, 3-(4-((R)-2-methylpiperazin-1-yl)-7-(1H-pyrazol-3-yl)imidazo[1,5-b]pyridazin-2-yl)-8-oxa-3-azabicyclo[3.2.1]octane formate], for which the IC50 turned out to be 0.592 µM in the test with LOVO cells and 0.0792 µM against ATR.

On to `C[C@@H]1CN(c2cc(N3CC4CCC(C3)O4)nn3c(-c4cc[nH]n4)ncc23)C[C@H](C)O1` [Example 16, 3-(4-(cis-2,6-dimethylmorpholino)-7-(1H-pyrazol-3-yl)imidazo[1,5-b]pyridazin-2-yl)-8-oxa-3-azabicyclo[3.2.1]octane], for which the IC50 in the test on LOVO cells was found to be 0.31 µM; against ATR, 0.0219 µM.

The compound `Cn1nc(-c2cc[nH]n2)c2nc(N3CC4CCC(C3)O4)cc(N3CC4CCC(C3)O4)c21` [Example 13, 3-(7-(8-oxa-3-azabicyclo[3.2.1]octan-3-yl)-1-methyl-3-(1H-pyrazol-3-yl)-1H-pyrazolo[4,3-b]pyridin-5-yl)-8-oxa-3-azabicyclo[3.2.1]octane] had an IC50 against ATR of 0.018 µM.

With `FC1(F)CCN(c2cc(N3CC4CCC(C3)O4)nn3c(-c4cc[nH]n4)ncc23)CC1` [Example 14, 3-(4-(4,4-difluoropiperidin-1-yl)-7-(1H-pyrazol-3-yl)imidazo[1,5-b]pyridazin-2-yl)-8-oxa-3-azabicyclo[3.2.1]octane], the figures for the IC50 in the test on LOVO cells and against ATR were 0.419 µM and 0.008 µM, respectively.

On ATR, `c1cc(-c2ncc3c(N4CCNCC4)cc(N4CC5CCC(C4)O5)nn23)n[nH]1` [Example 10, 3-(4-(piperazin-1-yl)-7-(1H-pyrazol-3-yl)imidazo[1,5-b]pyridazin-2-yl)-8-oxa-3-azabicyclo[3.2.1]octane formate] returned an IC50 of 0.145 µM.

For `C[C@@H]1CN(C)CCN1c1cc(N2CC3CCC(C2)O3)nn2c(-c3cc[nH]n3)ncc12` [Example 11, 3-(4-((R)-2,4-dimethylpiperazin-1-yl)-7-(1H-pyrazol-3-yl)imidazo[1,5-b]pyridazin-2-yl)-8-oxa-3-azabicyclo[3.2.1]octane formate], the IC50 in the test with LOVO cells is 2.64 µM; on ATR it was 0.0224 µM.

In the case of `CC1CN(c2cc(N3CC4CCC(C3)O4)nn3c(-c4cc[nH]n4)ncc23)CCO1` (stereo not shown) [Example 18, 3-(4-(2-methylmorpholino)-7-(1H-pyrazol-3-yl)imidazo[1,5-b]pyridazin-2-yl)-8-oxa-3-azabicyclo[3.2.1]octane], the IC50 against ATR was 0.0508 µM.

With `c1cc(-n2ncc3c(N4CC5CCC(C4)O5)cc(N4CC5CCC(C4)O5)nc32)n[nH]1` [Example 12, 3-(6-(-8-oxa-3-azabicyclo[3.2.1]octan-3-yl)-1-(1H-pyrazol-3-yl)-1H-pyrazolo[3,4-b]pyridin-4-yl)-8-oxa-3-azabicyclo[3.2.1]octane], on ATR, the IC50 is 0.0169 µM. Against the preceding compound, the IC50 is about 3-fold lower.

As to `C[C@H]1COCCN1c1cc(N2CC3CCC(C2)O3)nn2c(-c3cc[nH]n3)ncc12` [Example 15, 3-(4-((S)-3-methylmorpholino)-7-(1H-pyrazol-3-yl)imidazo[1,5-b]pyridazin-2-yl)-8-oxa-3-azabicyclo[3.2.1]octane], the results for the half-maximal inhibitory concentration (IC50) with LOVO cells and at ATR were 0.186 µM and 0.022 µM, respectively.

As to `CC1CC(F)(F)CCN1c1cc(N2CC3CCC(C2)O3)nn2c(-c3cc[nH]n3)ncc12` (stereo not shown) [Example 30, 3-(4-(4,4-difluoro-2-methylpiperidin-1-yl)-7-(1H-pyrazol-3-yl)imidazo[1,5-b]pyridazin-2-yl)-8-oxa-3-azabicyclo[3.2.1]octane], the IC50 against ATR came to 0.0052 µM.

`c1cc(-c2ncc3c(N4CCOCC4)cc(N4CC5CCC(C4)O5)nn23)n[nH]1` [Example 7, 3-(4-morpholino-7-(1H-pyrazol-3-yl)imidazo[1,5-b]pyridazin-2-yl)-8-oxa-3-azabicyclo[3.2.1]octane]: the IC50 on ATR worked out at 0.0214 µM. Against the preceding compound, the IC50 is about 4.1-fold higher.

In the case of `c1cc(-c2ncc3c(N4CCCCC4)cc(N4CC5CCC(C4)O5)nn23)n[nH]1` [Example 17, 3-(4-(piperidin-1-yl)-7-(1H-pyrazol-3-yl)imidazo[1,5-b]pyridazin-2-yl)-8-oxa-3-azabicyclo[3.2.1]octane], at ATR, half-maximal inhibition (IC50) required 0.032 µM.

With `Cn1nccc1-c1cc(N2CC3CCC(C2)O3)nn2c(-c3cc[nH]n3)cnc12` [Example 27, 3-(8-(1-methyl-1H-pyrazol-5-yl)-3-(1H-pyrazol-3-yl)imidazo[1,2-b]pyridazin-6-yl)-8-oxa-3-azabicyclo[3.2.1]octane], the IC50 against ATR stood at 0.149 µM.

For the compound `OC1(c2cc(N3C[C@H]4CC[C@@H](C3)O4)nc3c(-c4ccn[nH]4)cnn23)CCOCC1` [Example 23, 4-(5-((1R,5S)-8-oxa-3-azabicyclo[3.2.1]octan-3-yl)-3-(1H-pyrazol-5-yl)pyrazolo[1,5-a]pyrimidin-7-yl)tetrahydro-2H-pyran-4-ol], on ATR, inhibition was half-maximal at 0.0855 µM (IC50).
